Here are results for 1 molecule from patent publication US9487519B2, “5,6-Dialkyl-7-aminotriazolopyrimidines, their preparation and their use for controlling harmful fungi, and compositions comprising these compounds” (BASF SE, priority 2004, dated 2016).

For assay [1], the system named is Plasmopara viticola. Kind of assay: Activity against Peronospora of grapevines caused by Plasmopara viticola (Use Example 1). The class given is in vivo. The conditions noted are these: 250 ppm, potted vines sprayed to runoff, inoculated next day; untreated plants 95% infected. The method, then:
The active compounds were prepared as a stock solution comprising 25 mg of active compound which was made up to 10 ml using a mixture of acetone and/or DMSO and the emulsifier Uniperol® EL (wetting agent having emulsifying and dispersing agent based on ethoxylated alkylphenols) in a ratio by volume of solvent/emulsifier of 99/1. The mixture was then made up to 100 ml with water. This stock solution was, using the solvent/emulsifier/water mixture described, diluted to the active compound concentration stated below.
Leaves of potted vines were sprayed to runoff point with an aqueous suspension having the concentration of active compound stated below. The next day, the undersides of the leaves were inoculated with an aqueous sporangia suspension of Plasmopara viticola. The vines were then initially placed in a water-vapor-saturated chamber at 24° C. for 48 hours and then in a greenhouse at temperatures between 20° C. and 30° C. for 5 days. After this time, the plants were once more placed in a humid chamber for 16 hours to promote the eruption of sporangiophores. The extent of the development of the infection on the undersides of the leaves was then determined visually.

Assay [2] relates to Phytophthora infestans. The format is in vivo. The conditions noted are these: 250 ppm, potted tomato plants sprayed to runoff, infected next day, assessed after 6 days; untreated plants 100% infected.

The structures appear in SMILES notation.

With `CCCCCCCCc1c(CC)nc2ncnn2c1N` [I-2, 7-amino-5-ethyl-6-octyl[1,2,4]triazolo[1,5-a]pyrimidine], the “infection on the undersides of the leaves, determined visually” value in assay [1] is listed as “no infection”. Besides, in assay [2], the “infection (late blight), determined visually” value is given as “no infection”.
